Results taken from patent publication US9944597B2, “Polysubstituted pyrroles having microtubule-disrupting, cytotoxic and antitumor activities and methods of use thereof” (THE BOARD OF REGENTS OF THE UNIVERSITY OF TEXAS SYSTEM, priority 2013, dated 2018).
Where two headings read alike, the source gives them in different places.

What was measured:
HeLa WT-β-III cells = assay: Antiproliferative SRB assay, βIII-tubulin expressing HeLa; type: cell-based, human; details: for IC50: Table 49, βIII tubulin expressing line, 48 hr, SRB assay; for Rr (β-III): relative resistance: IC50 of expressing line divided by IC50 of parental HeLa
Method: (§1) Cell Culture. Various representative cancer and other cell lines were sourced and grown as described previously [Mooberry, S. L., et al., Mol. Pharm. 72, 132-140 (2007)]. MDA-MB-435 (human melanoma cancer cells), and MDA-MB-231 (human breast cancer cells) were grown in IMEM Richter's Medium (Life Technologies, Grand Island, N.Y.) with 10% FBS (Hyclone, Logan, Utah) and 25 μg/mL gentamicin sulfate (Life Technologies). A-10 (embryonic rat vascular smooth muscle cells) and HeLa (human cervical cancer cells), SK-OV-3 (human ovarian cancer cells) and SK-OV-3-MDR-1-M6/6 (a clone of the SK-OV-3 that was generated from SK-OV-3 cells by adenovirus-mediated expression of MDR1) were grown in Basal Medium Eagle (BME, Sigma-Aldrich, St. Louis, Mo.) containing Earle's salts, 50 μg/ml gentamicin sulfate, and 10% FBS. HeLa cells (a single-cell clone derived from transduction of HeLa cells with wild-type (WT) βIII-tubulin) were grown in Dulbecco's Modified Eagle's Medium (DMEM, Life Technologies) containing 50 μg/mL gentamicin sulfate and 10% FBS.
(§2) Antiproliferative Effects. The pyrrole compounds were evaluated for their antiproliferative effects in a panel of cancer cell lines. Cells were plated into 96-well plates at predetermined densities and allowed to attach and proliferate for 24 hr, and then the compounds were added. After a 48 hr exposure to the compounds, the cells were fixed with trichloroacetic acid and cellular protein was determined using the sulforhodamine B (SRB) assay (Skehan et al., J. Natl. Cancer Inst. 82, 1107-12, (1990); Boyd and Paull Drug Devel. Res. 34, 91-109, (1995)). Concentration response curves were constructed, and the IC50 (the concentration required to inhibit proliferation by 50%) values were determined from the linear portions of the log concentration-response curves as described previously [Tinley, T. L., et al., Cancer Res. 63, 3211-3220, (2003)] as shown in Table 48.
(§3) First, drug resistance mediated by the expression of βIII tubulin was evaluated in an isogenic HeLa cell line pair. Expression of the βIII tubulin isotype is associated with clinical drug resistance to the taxanes in ovarian cancer, non small-cell lung cancer and breast cancer [Galmarini, C. M., et al., Clin. Cancer Res. 14, 4511-4516 (2008)]. Secondly, drug resistance mediated by the expression of the drug efflux pump protein, Pgp, was evaluated in the isogenic SK-OV-3 cell line pair. The expression of Pgp can lead to lower intracellular drug concentrations and diminished cytotoxic effects both in vitro and in vivo. All tubulin-binding anticancer drugs used currently in the clinic, except cabazitaxel, are substrates for Pgp, thus limiting their utility in drug resistant tumors [Penson, R. T., et al., Gynecol. Oncol. 93, 98-106 (2004)]. Differences in sensitivity between the parent and transformed cell line, indicative of resistance, was determined by calculating relative resistance (Rr) values in the two pairs of isogenic cell lines (dividing the IC50 of the expressing cell line by the IC50 of the parental cell line).

A-10 cells = assay: Cellular microtubule loss by indirect immunofluorescence; type: cell-based, rat; details: read-out: EC50 Values (nM) for Microtubule Loss in A-10 cells
Method: The effects of representative compounds on cellular microtubules were evaluated in A-10 (embryonic rat vascular smooth muscle cell line) cells using indirect immunofluorescence techniques as previously described (Tinley et al., Cancer Res. 63, 3211-20 (2003)). Cells were visualized using a Nikon Eclipse 80i fluorescence microscope and NIS Elements software. Changes in both interphase and mitotic microtubules were noted and photographed. The EC50 values, the concentration that causes approximately 50% loss of interphase microtubules was determined by evaluating a range of concentrations of each compound and the percent cellular microtubule depolymerization that was observed visually at each concentration was noted.
Microtubules were visualized by indirect immunofluorescence using a β-tubulin antibody, and the DNA was visualized with DAPI. A representative concentration response curve for NT-7-16 is also shown in FIG. 1 that was used to calculate its corresponding EC50 for microtubule loss. Concentration response curves for microtubule loss were plotted using data from at least three experiments for each compound and the corresponding EC50 values for microtubule loss are presented in Table 50.

[1] = tested on: MDA-MB-435 (human melanoma cancer cells); assay: Antiproliferative SRB assay, MDA-MB-435; type: cell-based; details: read-out: MDA-MB-435 Anti-Proliferative Activity, IC50
Method: as §1, §2

SK-OV-3-MDR-1-6/6 cells = assay: Antiproliferative SRB assay, Pgp expressing SK-OV-3; type: cell-based, human; details: for IC50: Table 49, Pgp expressing line, 48 hr, SRB assay; for Rr (Pgp): relative resistance: IC50 of expressing line divided by IC50 of parental SK-OV-3
Method: as §1, §2
as §3, with “The expression of Pgp can lead to lower intracellular drug concentrations and diminished cytotoxic effects both in vitro and in vivo.” left out

[2] = tested on: HeLa (human cervical cancer cells); assay: Antiproliferative SRB assay, HeLa; type: cell-based
Method: as §1, §2, §3

[3] = tested on: SK-OV-3 (human ovarian cancer cells); assay: Antiproliferative SRB assay, SK-OV-3; type: cell-based
Method: as §1, §2
as §3, with “The expression of Pgp can lead to lower intracellular drug concentrations and diminished cytotoxic effects both in vitro and in vivo.” left out

[4] = Rattus norvegicus, A10, Table 50, concentration causing approximately 50% loss of interphase microtubules
[5] = Homo sapiens, MDA-MB-435, Table 48, 48 hr exposure, SRB assay
[6] = Homo sapiens, MDA-MB-435, Table 52
[7] = Homo sapiens, HeLa, Table 48, 48 hr exposure, read-out: HeLa Anti-Proliferative Activity, IC50
[8] = Homo sapiens, HeLa, Table 49, parental line, 48 hr, read-out: HeLa IC50
[9] = Homo sapiens, SK-OV-3, Table 48, 48 hr exposure, read-out: SK-OV-3 Anti-Proliferative Activity, IC50
[10] = Homo sapiens, SK-OV-3, Table 49, parental line, 48 hr, read-out: SK-OV-3 IC50
[11] = Table 50, concentration causing approximately 50% loss of interphase microtubules
[12] = Table 49, parental line, 48 hr, read-out: HeLa IC50
[13] = Table 49, parental line, 48 hr, read-out: SK-OV-3 IC50

Row | IC50 (HeLa WT-β-III cells; Homo sapiens, HeLa) | EC50 (A-10 cells; [4]) | IC50 [1, 5] | IC50 [1, 6] | IC50 (SK-OV-3-MDR-1-6/6 cells; Homo sapiens, SK-OV-3) | IC50 [2, 7] | melting point | IC50 [3, 9] | Compound | Rr (β-III) (HeLa WT-β-III cells) | Rr (Pgp) (SK-OV-3-MDR-1-6/6 cells) | IC50 [2, 8] | IC50 [3, 10] | further results
1 | 26 ± 1 nM | 55 nM | 23.9 ± 1.2 nM | 23.9 ± 1.2 nM | 10.4 ± 0.9 nM | 14.8 ± 0.2 nM |  | 16.4 ± 0.9 nM | CCOC(=O)c1[nH]c(/C=C\C(=O)OC)c(-c2ccc(OC)c(OC)c2OC)c1Br [Example 8a, Cis-3-Bromo-5-(3-methoxy-3-oxoprop-1-en-1-yl)-4-(2,3,4-trimethoxyphenyl)-1H-pyrrole-2-carboxylic acid ethyl ester] | 1.8 | 0.6 | 14.8 ± 0.2 nM | 16.4 ± 0.9 nM | 
2 | 19.4 ± 0.4 nM | 24 nM | 9.3 ± 0.3 nM | 9.3 ± 0.3 nM | 26.7 ± 0.3 nM | 10.9 ± 0.3 nM |  | 22.3 ± 0.5 nM | CCOC(=O)c1[nH]c(/C=C/C(=O)OC)c(-c2ccc(OC)c(OC)c2OC)c1Br [Example 8b, Trans-3-Bromo-5-(3-methoxy-3-oxoprop-1-en-1-yl)-4-(2,3,4-trimethoxyphenyl)-1H-pyrrole-2-carboxylic acid ethyl ester] | 1.8 | 1.2 | 10.9 ± 0.3 nM | 22.3 ± 0.5 nM | 

The next lines start with the compound.

Row | Compound | IC50 (HeLa WT-β-III cells; Homo sapiens, HeLa) | EC50 (A-10 cells; [4]) | IC50 [1, 5] | IC50 [1, 6] | IC50 (SK-OV-3-MDR-1-6/6 cells; Homo sapiens, SK-OV-3) | IC50 [2, 7] | melting point | IC50 [3, 9] | Rr (β-III) (HeLa WT-β-III cells) | Rr (Pgp) (SK-OV-3-MDR-1-6/6 cells) | IC50 [2, 8] | IC50 [3, 10] | further results
3 | CCOC(=O)c1[nH]c(C=NO)c(-c2ccc(OC)c(OC)c2OC)c1Cl (mixture of isomers) [Example 21, Cis/Trans-3-chloro-4-(2,3,4-trimethoxyphenyl)-5-oximino-1H-pyrrole 2-carboxylic acid ethyl ester] | 109 ± 9.5 nM | 170 nM | 87.7 ± 10 nM | 87.7 ± 10 nM | 419 ± 30.4 nM | 123 ± 6.5 nM | 135 to 140 °C | 175 ± 30.4 nM | 0.9 | 1.9 | 123 ± 6.5 nM | 175 ± 30.4 nM | 
4 | CCOC(=O)c1cc(-c2ccc(OC)c(OC)c2OC)c(C=O)[nH]1 [Example 1, 4-(2,3,4-trimethoxyphenyl)-5-formyl-1H-pyrrole 2-carboxylic acid ethyl ester] |  |  |  |  |  |  | 138 to 140 °C |  |  |  |  |  | 
5 | CCOC(=O)c1[nH]c(CO)c(-c2ccc(OC)c(OC)c2OC)c1Br [Example 5, 3-Bromo-5-(hydroxymethyl)-4-(2,3,4-trimethoxyphenyl)-1H-pyrrole 2-carboxylic acid ethyl ester] | 27.4 ± 3.1 nM | 76 nM | 25.7 ± 0.8 nM | 25.7 ± 0.8 nM | 46.6 ± 2.1 nM | 33.4 ± 0.8 nM |  | 37.4 ± 1.3 nM | 0.8 | 1.2 | 33.4 ± 0.8 nM | 37.4 ± 1.3 nM | 
6 | C=Cc1[nH]c(C(=O)OCC)c(Br)c1-c1ccc(OC)c(OC)c1OC [Example 7, 3-Bromo-5-vinyl-4-(2,3,4-trimethoxyphenyl)-1H-pyrrole 2-carboxylic acid ethyl ester] | 20.5 ± 0.8 nM | 54 nM | 17.6 ± 1 nM | 17.6 ± 1 nM | 28.1 ± 1.9 nM | 23.8 ± 1.7 nM |  | 26.6 ± 1.1 nM | 0.9 | 1.1 | 23.8 ± 1.7 nM | 26.6 ± 1.1 nM | 
7 | CCOC(=O)c1[nH]c(C(=O)O)c(-c2ccc(OC)c(OC)c2OC)c1Br [Example 9, 3-Bromo-4-(2,3,4-trimethoxyphenyl)-5-carboxy-1H-pyrrole 2-carboxylic acid ethyl ester] |  | 4600 nM | 1530 nM | 1530 nM |  | 2340 nM | 173 to 175 °C |  |  |  | 2340 nM |  | 
8 | CCOC(=O)c1[nH]c(C=NO)c(-c2ccc(OC)c(OC)c2OC)c1Br [Example 10c] |  |  |  |  |  |  |  |  | 1.4 | 1.8 |  |  | IC50 (HeLa WT-β-III cells): 25 ± 1.4 nM; EC50 (A-10 cells; [11]): 56.2 nM; EC50 (A-10 cells; Table 52): 56.2 nM; IC50 ([1]; Table 52): 14 ± 0.8 nM; IC50 (SK-OV-3-MDR-1-6/6 cells): 41.6 ± 1.9 nM; IC50 [2, 12]: 18 ± 0.9 nM; IC50 [3, 13]: 23.1 ± 0.5 nM
9 | CCOC(=O)c1[nH]c(CNCCNC(=O)OC(C)(C)C)c(-c2ccc(OC)c(OC)c2OC)c1Br [Example 19, 3-Bromo-5-[((N-2-tert-butoxycarbonylamino)-ethylamino)-methyl]-4-(2,3,4-trimethoxyphenyl)-1H-pyrrole 2-carboxylic acid ethyl ester] |  |  |  |  |  |  | 235 to 237 °C |  |  |  |  |  | 
10 | CCOC(=O)c1[nH]c(CNCCN)c(-c2ccc(OC)c(OC)c2OC)c1Br [Example 20, 5-[N-((2-Aminoethyl)amino)methyl]-3-Bromo-4-(2,3,4-trimethoxyphenyl)-1H-pyrrole 2-carboxylic acid ethyl ester] |  |  |  |  |  |  | 135 to 137 °C |  |  |  |  |  | 
11 | Cis-3-Bromo-4-(2,3,4-trimethoxyphenyl)-5-oximino-1H-pyrrole 2-carboxylic acid ethyl ester [Example 10b] |  |  |  |  |  |  |  |  | 1.1 | 1.5 |  |  | IC50 (HeLa WT-β-III cells): 31.3 ± 0.5 nM; EC50 (A-10 cells; [11]): 108 nM; EC50 (A-10 cells; Table 52): 108 nM; IC50 ([1]; Table 48, 48 hr exposure, SRB assay): 25.3 ± 3.1 nM; IC50 ([1]; Table 52): 25.3 ± 3.1 nM; IC50 (SK-OV-3-MDR-1-6/6 cells): 49.6 ± 2.4 nM; IC50 ([2]; Table 48, 48 hr exposure, read-out: HeLa Anti-Proliferative Activity, IC50): 29.4 ± 1 nM; IC50 [2, 12]: 29.4 ± 1 nM; IC50 ([3]; Table 48, 48 hr exposure, read-out: SK-OV-3 Anti-Proliferative Activity, IC50): 33.7 ± 1.3 nM; IC50 [3, 13]: 33.7 ± 1.3 nM
